Laboratory results: publication PMC11729419, “Thiol-Reactive or Redox-Active: Revising a Repurposing Screen Led to a New Invalidation Pipeline and Identified a True Noncovalent Inhibitor Against Papain-like Protease from SARS-CoV-2” (ACS Pharmacology & Translational Science, 2024)
Like-named read-outs stand apart in the source and are kept apart here. * marks the point of attachment. AMC = Cc1cc(=O)oc2cc(N*)ccc12; Cbz = O=C(OCc1ccccc1)*

Key:
SARS-CoV-2 PLpro-NAB [1] = target: T1, SARS-CoV-2 PLpro-NAB (Severe acute respiratory syndrome coronavirus 2, UniProt P0DTD1); assay: biochemical
PLpro-NAB [2] = target: T2, PLpro-NAB (Severe acute respiratory syndrome coronavirus 2, UniProt P0DTD1); assay: STD-NMR ligand binding and competition; set-up: species or system SARS-CoV-2; details: for STD amplification factor AMP: 0.15 mM compound, PLpro/compound 1:100
PLpro-NAB [3] = target: T2, PLpro-NAB; format: binding, SARS-CoV-2; details: consistent in both DTT and L-Cys buffers
PLpro-NAB C111S = PLpro-NAB C111S (Severe acute respiratory syndrome coronavirus 2, UniProt P0DTD1, C1674S); format: binding, SARS-CoV-2
SARS-CoV-2 PLpro-NAB [4] = target: T1, SARS-CoV-2 PLpro-NAB; format: biochemical
[5] = Table S1, DTT buffer, average (SD)
[6] = Table S1, L-cysteine buffer, average (SD)
[7] = Table S1, DTT buffer, read-out: HP PLpro-NAB SARS-CoV-2 IC50 [µM] triplicates DTT BUFFER
[8] = Table S1, L-cysteine buffer, read-out: HP PLpro-NAB SARS-CoV-2 IC50 [µM] duplicates L-CYS BUFFER

CCS(=O)(=O)N1CCC([C@@H](C)n2c(C)c(C(=O)NCc3c(OC)cc(C)[nH]c3=O)c3ccccc32)CC1 [CPI-169]
Inhibition in L-cysteine buffer versus DTT buffer (dose-response) (SARS-CoV-2 PLpro-NAB [1]; 1 mM L-cysteine vs 1 mM DTT): did not show variations in inhibition potency or thermal stability | Inhibitory activity on retest in 1 mM L-cysteine (SARS-CoV-2 PLpro-NAB [1]; 50% inhibition at 20 μM, 1 mM L-cysteine): retained their inhibitory activity | HC PLpro-NAB inhibition [%] 20 μM triplicates 1 mM DTT buffer (SARS-CoV-2 PLpro-NAB [1]; hit confirmation, 20 μM, 1 mM DTT buffer, average (SD), 20 μM PR619 = 100%, DMSO = 0%, listed as CPI-169 (FhG)): 99.81 (2.18) % | inhibition at 20 µM (SARS-CoV-2 PLpro-NAB [1]; hit confirmation, 20 μM, 1 mM DTT buffer, average (SD), 20 μM PR619 = 100%, DMSO = 0%, read-out: HC PLpro-NAB inhibition [%] 20 μM triplicates 1 mM DTT buffer): 96% | HP PLpro-NAB inhibition [%] 20 μM triplicates 1 mM L-cys buffer (SARS-CoV-2 PLpro-NAB [1]; hit profiling, 20 μM, 1 mM L-cys buffer, average (SD), 20 μM PR619 = 100%, listed as CPI-169 (EOS)): 49.41 (2.14) % | HP PLpro-NAB inhibition [%] 20 μM triplicates 1 mM L-cys buffer (SARS-CoV-2 PLpro-NAB [1]; hit profiling, 20 μM, 1 mM L-cys buffer, average (SD), 20 μM PR619 = 100%, listed as CPI-169 (FhG)): 70.67 (1.71) % | Competitive STD-NMR with GRL-0617 (PLpro-NAB [2]): displacement of CPI-169 from the GRL-0617 binding site | STD amplification factor AMP (PLpro-NAB [2]; proton H11): 0.74 | STD amplification factor AMP (PLpro-NAB [2]; proton H13): 1.19 | STD amplification factor AMP (PLpro-NAB [2]; proton H23): 0.43 | STD amplification factor AMP (PLpro-NAB [2]; proton H35): 0.89 | Tm value of PLpro-NAB (PLpro-NAB [3]): concentration-dependent increase in the Tm value | Tm / stability of PLpro-NAB C111S (PLpro-NAB C111S): increased the Tm

Nc1ccc(O)c2ncccc12 [PD119507]
HC PLpro-NAB SARS-CoV-2 inhibition [%] 20 µM triplicates DTT BUFFER (SARS-CoV-2 PLpro-NAB [1]; [5]): 186.40 (4.35) % | HP PLpro-NAB SARS-CoV-2 inhibition [%] 20 µM triplicates L-CYS BUFFER (SARS-CoV-2 PLpro-NAB [1]; [6]): -16.42 (5.8) % | IC50 (SARS-CoV-2 PLpro-NAB [1]; [7]): 0.065 µM | IC50 (SARS-CoV-2 PLpro-NAB [1]; [8]): > 20 µM

O=c1c(O)cccc2cc(O)c(O)c(O)c12 [purpurogallin]
IC50 (SARS-CoV-2 PLpro-NAB [1]; HP PLpro-NAB IC50 [μM] duplicates 1 mM L-cys buffer, hit profiling, 1 mM L-cys buffer): 1.03 µM | IC50 (SARS-CoV-2 PLpro-NAB [1]; HP PLpro-NAB IC50 [μM] triplicates 1 mM DTT buffer, hit profiling, 1 mM DTT buffer): > 20 µM

Cbz-LRGG-{AMC}
Km (SARS-CoV-2 PLpro-NAB [4]): 45.2 µM | Vmax (SARS-CoV-2 PLpro-NAB [4]): 173 041 /min

CC1(C)CCC2=C(O1)C(=O)c1ccccc1C2=O [Alpha Lapachone]
HC PLpro-NAB SARS-CoV-2 inhibition [%] 20 µM triplicates DTT BUFFER (SARS-CoV-2 PLpro-NAB [1]; [5]): 146.26 (3.11) % | HP PLpro-NAB SARS-CoV-2 inhibition [%] 20 µM triplicates L-CYS BUFFER (SARS-CoV-2 PLpro-NAB [1]; [6]): -6.97 (8.44) % | IC50 (SARS-CoV-2 PLpro-NAB [1]; [7]): 4.43 µM | IC50 (SARS-CoV-2 PLpro-NAB [1]; [8]): > 20 µM

Chicago-Sky-Blue-6b
HC PLpro-NAB SARS-CoV-2 inhibition [%] 20 µM triplicates DTT BUFFER (SARS-CoV-2 PLpro-NAB [1]; [5]): 51.02 (1.78) % | HP PLpro-NAB SARS-CoV-2 inhibition [%] 20 µM triplicates L-CYS BUFFER (SARS-CoV-2 PLpro-NAB [1]; [6]): 3.64 (5.37) % | IC50 (SARS-CoV-2 PLpro-NAB [1]; [7]): > 20 µM | IC50 (SARS-CoV-2 PLpro-NAB [1]; [8]): > 20 µM
